From PubChem BioAssay AID1963827 (Molecular Pharmacology Branch, DTP, NCI, 2024)

System: 994946-033-R-J1-PDC complex spheroid viability
Test: Anticancer human tumor 994946-033-R-J1-PDC patient-derived melanoma cell line growth inhibition [POLQ]
Conditions: for IC50: curve of first compound; for viability, T/C: stronger effect = lower value
In short: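 PDC + HUVEC + MSC complex spheroids; POLQ inhibitors ± partner drugs; top conc. at/near clinical Cmax, else 10 microM (SN-38 1 microM), half-log dilutions; 37 degrees C, 5% CO2.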

[1] = second compound 0.0316 µM, first compound 0.00316 µM
[2] = second compound 0.0316 µM, first compound 0.01 µM
[3] = second compound 0.0316 µM, first compound 0.0316 µM
[4] = second compound 0.0316 µM, first compound 0.1 µM
[5] = second compound 0.1 µM, first compound 0.00316 µM
[6] = second compound 0.1 µM, first compound 0.01 µM
[7] = second compound 0.1 µM, first compound 0.0316 µM
[8] = second compound 0.1 µM, first compound 0.1 µM
[9] = second compound 0.316 µM, first compound 0.00316 µM
[10] = second compound 0.316 µM, first compound 0.01 µM
[11] = second compound 0.316 µM, first compound 0.0316 µM
[12] = second compound 0.316 µM, first compound 0.1 µM
[13] = second compound 1 µM, first compound 0.00316 µM
[14] = second compound 1 µM, first compound 0.01 µM
[15] = second compound 1 µM, first compound 0.0316 µM
[16] = second compound 1 µM, first compound 0.1 µM
[17] = second compound 3.16 µM, first compound 0.00316 µM
[18] = second compound 3.16 µM, first compound 0.01 µM
[19] = second compound 3.16 µM, first compound 0.0316 µM
[20] = second compound 3.16 µM, first compound 0.1 µM
[21] = second compound 10 µM, first compound 0.00316 µM
[22] = second compound 10 µM, first compound 0.01 µM
[23] = second compound 10 µM, first compound 0.0316 µM
[24] = second compound 10 µM, first compound 0.1 µM
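Note: spheroids exposed to drugs for 7 days.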
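Throughout, for viability, T/C: 100% = DMSO vehicle treated spheroids.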

Structure (SMILES): C=CCn1c(=O)c2cnc(Nc3ccc(N4CCN(C)CC4)cc3)nc2n1-c1cccc(C(C)(C)O)n1 + COC1C(OC(N)=O)C(O)C(Oc2ccc3c(O)c(NC(=O)c4ccc(O)c(CC=C(C)C)c4)c(=O)oc3c2C)OC1(C)C
- IC50 (second compound 0.0316 µM): 855 nM
- IC50 (second compound 0.1 µM): 863 nM
- IC50 (second compound 0.316 µM): 675 nM
- IC50 (second compound 1 µM): > 1000 nM
- IC50 (second compound 3.16 µM): > 1000 nM
- IC50 (second compound 10 µM): 966 nM
- viability, T/C [1]: 89.1%
- viability, T/C [2]: 115%
- viability, T/C [3]: 126%
- viability, T/C [4]: 117%
- viability, T/C (second compound 0.0316 µM, first compound 0.316 µM): 92.8%
- viability, T/C (second compound 0.0316 µM, first compound 1 µM): 43.2%
- viability, T/C [5]: 93.1%
- viability, T/C [6]: 101%
- viability, T/C [7]: 117%
- viability, T/C [8]: 96%
- viability, T/C (second compound 0.1 µM, first compound 0.316 µM): 89.2%
- viability, T/C (second compound 0.1 µM, first compound 1 µM): 44.3%
- viability, T/C [9]: 98.5%
- viability, T/C [10]: 109%
- viability, T/C [11]: 134%
- viability, T/C [12]: 102%
- viability, T/C (second compound 0.316 µM, first compound 0.316 µM): 83.9%
- viability, T/C (second compound 0.316 µM, first compound 1 µM): 32.8%
- viability, T/C [13]: 110%
- viability, T/C [14]: 118%
- viability, T/C [15]: 94.9%
- viability, T/C [16]: 102%
- viability, T/C (second compound 1 µM, first compound 0.316 µM): 104%
- viability, T/C (second compound 1 µM, first compound 1 µM): 60.8%
- viability, T/C [17]: 91.9%
- viability, T/C [18]: 127%
- viability, T/C [19]: 106%
- viability, T/C [20]: 83.2%
- viability, T/C (second compound 3.16 µM, first compound 0.316 µM): 56.5%
- viability, T/C (second compound 3.16 µM, first compound 1 µM): 53.9%
- viability, T/C [21]: 101%
- viability, T/C [22]: 104%
- viability, T/C [23]: 120%
- viability, T/C [24]: 114%
- viability, T/C (second compound 10 µM, first compound 0.316 µM): 93.8%
- viability, T/C (second compound 10 µM, first compound 1 µM): 48.6%

Structure (SMILES): CC[C@@]1(O)C(=O)OCc2c1cc1n(c2=O)Cc2cc3c(CN(C)C)c(O)ccc3nc2-1 + COC1C(OC(N)=O)C(O)C(Oc2ccc3c(O)c(NC(=O)c4ccc(O)c(CC=C(C)C)c4)c(=O)oc3c2C)OC1(C)C
- IC50 (second compound 0.0316 µM): 21.2 nM
- IC50 (second compound 0.1 µM): 19.8 nM
- IC50 (second compound 0.316 µM): 21.4 nM
- IC50 (second compound 1 µM): 20.5 nM
- IC50 (second compound 3.16 µM): 17.7 nM
- IC50 (second compound 10 µM): 20.2 nM
- viability, T/C (second compound 0.0316 µM, first compound 0.000316 µM): 107%
- viability, T/C (second compound 0.0316 µM, first compound 0.001 µM): 69.1%
- viability, T/C [1]: 117%
- viability, T/C [2]: 77.8%
- viability, T/C [3]: 34.3%
- viability, T/C [4]: 7.91%
- viability, T/C (second compound 0.1 µM, first compound 0.000316 µM): 91.4%
- viability, T/C (second compound 0.1 µM, first compound 0.001 µM): 101%
- viability, T/C [5]: 109%
- viability, T/C [6]: 79.2%
- viability, T/C [7]: 29.4%
- viability, T/C [8]: 8%
- viability, T/C (second compound 0.316 µM, first compound 0.000316 µM): 96.6%
- viability, T/C (second compound 0.316 µM, first compound 0.001 µM): 99.6%
- viability, T/C [9]: 91.3%
- viability, T/C [10]: 86%
- viability, T/C [11]: 31.5%
- viability, T/C [12]: 11.3%
- viability, T/C (second compound 1 µM, first compound 0.000316 µM): 118%
- viability, T/C (second compound 1 µM, first compound 0.001 µM): 107%
- viability, T/C [13]: 100%
- viability, T/C [14]: 81.5%
- viability, T/C [15]: 30.4%
- viability, T/C [16]: 15.1%
- viability, T/C (second compound 3.16 µM, first compound 0.000316 µM): 92.7%
- viability, T/C (second compound 3.16 µM, first compound 0.001 µM): 86.5%
- viability, T/C [17]: 77%
- viability, T/C [18]: 73.1%
- viability, T/C [19]: 28%
- viability, T/C [20]: 10.2%
- viability, T/C (second compound 10 µM, first compound 0.000316 µM): 85.5%
- viability, T/C (second compound 10 µM, first compound 0.001 µM): 86.9%
- viability, T/C [21]: 85.4%
- viability, T/C [22]: 81%
- viability, T/C [23]: 30.3%
- viability, T/C [24]: 8.24%
